The values that follow come from patent US20240279611A1, “EXOSOME PRODUCTION PROMOTING AGENT AND EXOSOME PRODUCTION PROMOTING METHOD” (FULLSTEM CO., LTD., priority 2021, published 2024).

The test system of this assay is adipose-derived mesenchymal stem cells (ADSC). As to the kind of experiment: Amount of exosomes produced from ADSC, measured with Exo Counter (CD81 sandwich immunoassay) after excluding single factors. The assay is classed as cell-based. The settings on record: 48-hour culture in DMEM F12 on nonwoven fabric; one factor excluded from the eight factors of Table 1, compared with all eight added; CD81 on exosome surface detected in culture supernatant; FIG. 1. On the procedure: 4×10^4 adipose-derived mesenchymal stem cells (ADSC) were seeded in each well. A nonwoven fabric (3D, BioNOCII, CESCO BIOENGINEERING CO., LTD. in non-adhesive 24 well plate (PrimeSurface (registered trademark) Sumitomo Bakelite Co., Ltd.) was used for cell culture. A basal medium was 1.5 ml of 10% FBS/DMEM F12 (Sigma-Aldrich). The number of days of culture was 6. Starting from Day 2, 1.5 ml of medium was exchanged daily, and the amount of sugar consumed in the used culture medium was measured.
Next, in the cell culture for 48 hours on Day 7 and Day 8, DMEM F12 was used as a medium so as to collect exosomes. In this 48-hour culture, 10% ExoFBS (Funakoshi Co., Ltd.) was added in Test #1. ExoFBS is a product from which bovine-derived exosomes are removed; therefore, influence on an exosome research is reduced.
In Test #3 of the 48-hour culture, only factor A was excluded from the eight factors shown in Table 1, and the other factors were added. In Test #4 of the 48-hour culture, only factor B was excluded from the eight factors shown in Table 1, and the other factors were added. In Test #5 of the 48-hour culture, only factor C was excluded from the eight factors shown in Table 1, and the other factors were added. In Test #6 of the 48-hour culture, only factor D was excluded from the eight factors shown in Table 1, and the other factors were added. In Test #7 of the 48-hour culture, only factor E was excluded from the eight factors shown in Table 1, and the other factors were added. In Test #8 of the 48-hour culture, only factor F was excluded from the eight factors shown in Table 1, and the other factors were added. In Test #9 of the 48-hour culture, only factor G was excluded from the eight factors shown in Table 1, and the other factors were added. In Test #10 of the 48-hour culture, only factor H was excluded from the eight factors shown in Table 1, and the other factors were added.
The amount of exosomes produced from ADSC was measured with Exo Counter (Kenwood), using 50 μl each from 1.5 ml of the collected culture supernatant. Exo Counter detects exosomes by sandwich immunoassay using disc and nanobeads antibodies in a surface antigen-specific manner. CD81 on the exosome surface was detected to quantify the exosome amount.

As for IL-1β, the “effect of the factor on the amount of exosomes produced” value is “promoted the production of exosomes”.
In the case of `OC[C@H]1O[C@H](O[C@H]2O[C@H](CO)[C@@H](O)[C@H](O)[C@H]2O)[C@H](O)[C@@H](O)[C@@H]1O` [trehalose, Trehalose] it was “promoted the production of exosomes”; in that of TNFα, “inhibited the production of exosomes”.
In the case of “EGF [6045 Da protein consisting of 53 amino acid residues and three intramolecular disulfide bonds; ligand of epidermal growth factor receptor]” it was “promotes the production of exosomes”.
